# Measurements taken from patent US20020111274A1, “1-alkyl-3-[1-(substituted phenyl) benzotriazol-6-yl] uracils” (BASF Aktiengesellschaft, priority 2000, published 2002).
# Columns and labels:
# Parameters in all cases: scale not given here
# SETVI Foxtail, Green = test: Postemergence herbicidal evaluation, SETVI; format: in vivo, Setaria viridis, (L.) Beau; conditions: postemergence spray, rated about two-three weeks after treatment
# How it was run: (§1)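 Visual injury rating ~2–3 wk post-spray; replicate tests averaged. Two-week-old seedlings; foliar spray at 40 psi; 0.006–0.400 kg ai/ha in 80/20 acetone/water + 1.0% methylated seed oil.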
# GALAP Galium [1] = test: Preemergence herbicidal evaluation, GALAP; format: in vivo, Galium aparine; conditions: preemergence
# How it was run: (§2)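 First, seed is blended with potting soil and sown over roughly an inch of soil per cup. Next, the surface is sprayed with an aqueous acetone solution delivering about 0.013–0.800 kg/ha. Finally, cups are grown in the greenhouse and rated after 4–5 weeks.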
# GLXMAW Soybean, Williams [2] = test: Preemergence herbicidal evaluation, GLXMAW; format: in vivo, Glycine max, (L.) Merr. cv Williams; conditions: preemergence
# How it was run: as §2
# ABUTH Velvetleaf [3] = test: Preemergence herbicidal evaluation, ABUTH; format: in vivo, Abutilon theophrasti, Medic.; conditions: preemergence
# How it was run: as §2
# [4] = test system: TRZAWR Wheat, Winter, cv Riband; test: Preemergence herbicidal evaluation, TRZAWR; format: in vivo, Triticum aestivum; conditions: preemergence
# How it was run: as §2
# [5] = test system: CHEAL Lambsquarters, Common; test: Postemergence herbicidal evaluation, CHEAL; format: in vivo, Chenopodium album, L.; conditions: postemergence spray, rated about two-three weeks after treatment
# How it was run: as §1
# [6] = test system: TRZAWR Wheat, Winter, cv Riband; test: Postemergence herbicidal evaluation, TRZAWR; format: in vivo, Triticum aestivum; conditions: postemergence spray, rated about two-three weeks after treatment
# How it was run: as §1
# GLXMAW Soybean, Williams [7] = test: Postemergence herbicidal evaluation, GLXMAW; format: in vivo, Glycine max, (L.) Merr. cv Williams; conditions: postemergence spray, rated about two-three weeks after treatment
# How it was run: as §1
# ABUTH Velvetleaf [8] = test: Postemergence herbicidal evaluation, ABUTH; format: in vivo, Abutilon theophrasti, Medic.; conditions: postemergence spray, rated about two-three weeks after treatment
# How it was run: as §1
# GALAP Galium [9] = test: Postemergence herbicidal evaluation, GALAP; format: in vivo, Galium aparine; conditions: postemergence spray, rated about two-three weeks after treatment
# How it was run: as §1
# ZEAMX Corn, Field [10] = test: Preemergence herbicidal evaluation, ZEAMX; format: in vivo, Zea mays, L. (Sammel-Bezeichnung); conditions: preemergence
# How it was run: as §2
# ORYSAT Rice, Tebonnet [11] = test: Postemergence herbicidal evaluation, ORYSAT; format: in vivo, Oryza sativa, (L.); conditions: postemergence spray, rated about two-three weeks after treatment
# How it was run: as §1
# ZEAMX Corn, Field [12] = test: Postemergence herbicidal evaluation, ZEAMX; format: in vivo, Zea mays, L. (Sammel-Bezeichnung); conditions: postemergence spray, rated about two-three weeks after treatment
# How it was run: as §1
# CASOB Sicklepod [13] = test: Postemergence herbicidal evaluation, CASOB; format: in vivo, Cassia obtusifolia, L.; conditions: postemergence spray, rated about two-three weeks after treatment
# How it was run: as §1
# AMBEL Ragweed, Common = test: Preemergence herbicidal evaluation, AMBEL; format: in vivo, Ambrosia artemisifolia, L.; conditions: preemergence
# How it was run: as §2
# ORYSAT Rice, Tebonnet [14] = test: Preemergence herbicidal evaluation, ORYSAT; format: in vivo, Oryza sativa, (L.); conditions: preemergence
# How it was run: as §2
# [15] = test system: IPOHE Morningglory, Ivyleaf; test: Postemergence herbicidal evaluation, IPOHE; format: in vivo, Ipomoea hederacea, (L.) Jacq.; conditions: postemergence spray, rated about two-three weeks after treatment
# How it was run: as §1
# [16] = test system: IPOHE Morningglory, Ivyleaf; test: Preemergence herbicidal evaluation, IPOHE; format: in vivo, Ipomoea hederacea, (L.) Jacq.; conditions: preemergence
# How it was run: as §2
# CASOB Sicklepod [17] = test: Preemergence herbicidal evaluation, CASOB; format: in vivo, Cassia obtusifolia, L.; conditions: preemergence
# How it was run: as §2
structure (smiles),measurement,setting,value
"Cc1ccc(O)c(-n2nnc3cc(F)c(-n4c(=O)cc(C(F)(F)F)n(C)c4=O)cc32)c1 [Example 31, 3-[5-Fluoro-1-(2-Hydroxy-5-Methylphenyl)-1H-1,2,3-Benzotriazol-6-yl]-1-Methyl-6-(Trifluoromethyl)-2,4(1H,3H)-(Pyrimidinedione)]",Postemergence herbicidal rating SETVI,"SETVI Foxtail, Green; 0.008 kg/ha",0.0
same,Postemergence herbicidal rating SETVI,"SETVI Foxtail, Green; 0.016 kg/ha",0.0
same,Postemergence herbicidal rating SETVI,"SETVI Foxtail, Green; 0.032 kg/ha",0.0
same,Postemergence herbicidal rating SETVI,"SETVI Foxtail, Green; 0.062 kg/ha",5.0
same,GALAP herbicidal rating,GALAP Galium [1]; rate 0.008 kg/ha,0.0
same,GALAP herbicidal rating,GALAP Galium [1]; rate 0.016 kg/ha,0.0
same,GALAP herbicidal rating,GALAP Galium [1]; rate 0.032 kg/ha,0.0
same,GALAP herbicidal rating,GALAP Galium [1]; rate 0.062 kg/ha,0.0
same,GALAP herbicidal rating,GALAP Galium [1]; rate 0.125 kg/ha,0.0
same,GLXMAW herbicidal rating,"GLXMAW Soybean, Williams [2]; rate 0.008 kg/ha",0.0
same,GLXMAW herbicidal rating,"GLXMAW Soybean, Williams [2]; rate 0.016 kg/ha",0.0
same,GLXMAW herbicidal rating,"GLXMAW Soybean, Williams [2]; rate 0.032 kg/ha",0.0
same,GLXMAW herbicidal rating,"GLXMAW Soybean, Williams [2]; rate 0.062 kg/ha",0.0
same,GLXMAW herbicidal rating,"GLXMAW Soybean, Williams [2]; rate 0.125 kg/ha",0.0
same,ABUTH herbicidal rating,ABUTH Velvetleaf [3]; rate 0.008 kg/ha,0.0
same,ABUTH herbicidal rating,ABUTH Velvetleaf [3]; rate 0.016 kg/ha,0.0
same,ABUTH herbicidal rating,ABUTH Velvetleaf [3]; rate 0.032 kg/ha,0.0
same,ABUTH herbicidal rating,ABUTH Velvetleaf [3]; rate 0.062 kg/ha,0.0
same,ABUTH herbicidal rating,ABUTH Velvetleaf [3]; rate 0.125 kg/ha,3.0
same,TRZAWR herbicidal rating,[4]; rate 0.008 kg/ha,0.0
same,TRZAWR herbicidal rating,[4]; rate 0.016 kg/ha,0.0
same,TRZAWR herbicidal rating,[4]; rate 0.032 kg/ha,0.0
same,TRZAWR herbicidal rating,[4]; rate 0.062 kg/ha,0.0
same,TRZAWR herbicidal rating,[4]; rate 0.125 kg/ha,0.0
same,Postemergence herbicidal rating CHEAL,[5]; 0.008 kg/ha,0.0
same,Postemergence herbicidal rating CHEAL,[5]; 0.016 kg/ha,0.0
same,Postemergence herbicidal rating CHEAL,[5]; 0.032 kg/ha,0.0
same,Postemergence herbicidal rating CHEAL,[5]; 0.062 kg/ha,0.0
same,Postemergence herbicidal rating TRZAWR,[6]; 0.008 kg/ha,2.0
same,Postemergence herbicidal rating TRZAWR,[6]; 0.016 kg/ha,2.0
same,Postemergence herbicidal rating TRZAWR,[6]; 0.032 kg/ha,3.0
same,Postemergence herbicidal rating TRZAWR,[6]; 0.062 kg/ha,3.0
same,Postemergence herbicidal rating GLXMAW,"GLXMAW Soybean, Williams [7]; 0.008 kg/ha",3.5
same,Postemergence herbicidal rating GLXMAW,"GLXMAW Soybean, Williams [7]; 0.016 kg/ha",3.5
same,Postemergence herbicidal rating GLXMAW,"GLXMAW Soybean, Williams [7]; 0.032 kg/ha",4.5
same,Postemergence herbicidal rating GLXMAW,"GLXMAW Soybean, Williams [7]; 0.062 kg/ha",5.0
same,Postemergence herbicidal rating ABUTH,ABUTH Velvetleaf [8]; 0.008 kg/ha,0.0
same,Postemergence herbicidal rating ABUTH,ABUTH Velvetleaf [8]; 0.016 kg/ha,0.0
same,Postemergence herbicidal rating ABUTH,ABUTH Velvetleaf [8]; 0.032 kg/ha,2.0
same,Postemergence herbicidal rating ABUTH,ABUTH Velvetleaf [8]; 0.062 kg/ha,4.0
same,Postemergence herbicidal rating GALAP,GALAP Galium [9]; 0.008 kg/ha,0.0
same,Postemergence herbicidal rating GALAP,GALAP Galium [9]; 0.016 kg/ha,0.0
same,Postemergence herbicidal rating GALAP,GALAP Galium [9]; 0.032 kg/ha,0.0
same,Postemergence herbicidal rating GALAP,GALAP Galium [9]; 0.062 kg/ha,0.0
same,ZEAMX herbicidal rating,"ZEAMX Corn, Field [10]; rate 0.008 kg/ha",0.0
same,ZEAMX herbicidal rating,"ZEAMX Corn, Field [10]; rate 0.016 kg/ha",0.0
same,ZEAMX herbicidal rating,"ZEAMX Corn, Field [10]; rate 0.032 kg/ha",0.0
same,ZEAMX herbicidal rating,"ZEAMX Corn, Field [10]; rate 0.062 kg/ha",0.0
same,ZEAMX herbicidal rating,"ZEAMX Corn, Field [10]; rate 0.125 kg/ha",0.0
same,Postemergence herbicidal rating ORYSAT,"ORYSAT Rice, Tebonnet [11]; 0.008 kg/ha",1.0
same,Postemergence herbicidal rating ORYSAT,"ORYSAT Rice, Tebonnet [11]; 0.016 kg/ha",1.0
same,Postemergence herbicidal rating ORYSAT,"ORYSAT Rice, Tebonnet [11]; 0.032 kg/ha",1.5
same,Postemergence herbicidal rating ORYSAT,"ORYSAT Rice, Tebonnet [11]; 0.062 kg/ha",1.5
same,Postemergence herbicidal rating ZEAMX,"ZEAMX Corn, Field [12]; 0.008 kg/ha",3.5
same,Postemergence herbicidal rating ZEAMX,"ZEAMX Corn, Field [12]; 0.016 kg/ha",3.5
same,Postemergence herbicidal rating ZEAMX,"ZEAMX Corn, Field [12]; 0.032 kg/ha",4.5
same,Postemergence herbicidal rating ZEAMX,"ZEAMX Corn, Field [12]; 0.062 kg/ha",4.5
same,Postemergence herbicidal rating CASOB,CASOB Sicklepod [13]; 0.008 kg/ha,0.0
same,Postemergence herbicidal rating CASOB,CASOB Sicklepod [13]; 0.016 kg/ha,0.0
same,Postemergence herbicidal rating CASOB,CASOB Sicklepod [13]; 0.032 kg/ha,0.0
same,Postemergence herbicidal rating CASOB,CASOB Sicklepod [13]; 0.062 kg/ha,0.0
same,AMBEL herbicidal rating,"AMBEL Ragweed, Common; rate 0.008 kg/ha",0.0
same,AMBEL herbicidal rating,"AMBEL Ragweed, Common; rate 0.016 kg/ha",0.0
same,AMBEL herbicidal rating,"AMBEL Ragweed, Common; rate 0.032 kg/ha",0.0
same,AMBEL herbicidal rating,"AMBEL Ragweed, Common; rate 0.062 kg/ha",0.0
same,AMBEL herbicidal rating,"AMBEL Ragweed, Common; rate 0.125 kg/ha",0.0
same,ORYSAT herbicidal rating,"ORYSAT Rice, Tebonnet [14]; rate 0.008 kg/ha",0.0
same,ORYSAT herbicidal rating,"ORYSAT Rice, Tebonnet [14]; rate 0.016 kg/ha",0.0
same,ORYSAT herbicidal rating,"ORYSAT Rice, Tebonnet [14]; rate 0.032 kg/ha",0.0
same,ORYSAT herbicidal rating,"ORYSAT Rice, Tebonnet [14]; rate 0.062 kg/ha",0.0
same,ORYSAT herbicidal rating,"ORYSAT Rice, Tebonnet [14]; rate 0.125 kg/ha",0.0
same,Postemergence herbicidal rating IPOHE,[15]; 0.008 kg/ha,1.0
same,Postemergence herbicidal rating IPOHE,[15]; 0.016 kg/ha,2.0
same,Postemergence herbicidal rating IPOHE,[15]; 0.032 kg/ha,4.0
same,Postemergence herbicidal rating IPOHE,[15]; 0.062 kg/ha,4.0
same,IPOHE herbicidal rating,[16]; rate 0.008 kg/ha,0.0
same,IPOHE herbicidal rating,[16]; rate 0.016 kg/ha,0.0
same,IPOHE herbicidal rating,[16]; rate 0.032 kg/ha,0.0
same,IPOHE herbicidal rating,[16]; rate 0.062 kg/ha,0.0
same,IPOHE herbicidal rating,[16]; rate 0.125 kg/ha,0.0
same,CASOB herbicidal rating,CASOB Sicklepod [17]; rate 0.008 kg/ha,0.0
same,CASOB herbicidal rating,CASOB Sicklepod [17]; rate 0.016 kg/ha,0.0
same,CASOB herbicidal rating,CASOB Sicklepod [17]; rate 0.032 kg/ha,0.0
same,CASOB herbicidal rating,CASOB Sicklepod [17]; rate 0.062 kg/ha,0.0
same,CASOB herbicidal rating,CASOB Sicklepod [17]; rate 0.125 kg/ha,0.0
